Measurements as given in US20240408114A1, “METHODS FOR PREVENTING AND TREATING ACUTE KIDNEY INJURY” (The Johns Hopkins University, priority 2021, published 2024).

What was measured:
[1] = 1.83 mg/kg every other day i.p.; even with a longer duration of treatment; cited from earlier work
kidney T cells = assay: T cell phenotypes in normal steady-state kidneys; type: in vivo, mouse; conditions: normal mice, same dosage schedule; vs vehicle
Procedure: To test whether this immunologic effect was derived from the glutamine blockade or attenuated kidney injury, we studied normal mice treated with JHU083 or vehicle with the same dosage schedule. […] Therefore, changes seen in these markers in post-ischemic kidneys are likely through JHU083-mediated glutamine blockade.
KMNCs were isolated according to our previously described Percoll density gradient protocol. Ascon et al., 2006. Briefly, decapsulated kidneys were immersed and incubated in collagenase D (2 mg/mL; Sigma-Aldrich) solution for 30 min at 37° C. Samples were strained through 70 µm cell strainer (BD Bioscience, Franklin Lakes, NJ), washed, and resuspended in 40% Percoll (GE Healthcare, Chicago, IL) followed by gentle overlaying onto 80% Percoll. After centrifugation at 1,500 g for 30 min in brake off mode at room temperature, KMNCs were collected from interface between 40% and 80% Percoll. […] Cells were counted on hemocytometer using trypan blue exclusion under a microscope.
Cells were washed once with phosphate buffered saline (PBS) and stained with viability dye Zombie NIR Fixable Viability (BioLegend, San Diego, CA) for 15 min at room temperature. […] Samples were analyzed by 4-laser Aurora spectral flow cytometer (Cytek, Fremont, CA). […]

splenic T cells = assay: In vitro hypoxia/reoxygenation of CD3/CD28 stimulated splenic T cells; type: cell-based, mouse
Procedure: In vitro studies were performed to evaluate the effect of glutamine blockade on activated T cells under hypoxia followed by reoxygenation. Splenic T cells (CD45^+, TCR αβ^+) were isolated and cultured using media containing 0.25 μM, 0.5 μM, or 1 μM of JHU083 or vehicle. After 24 h from the culture under CD3/CD28 stimulation, cells were exposed to hypoxia for 24 h followed by reoxygenation.
Kidney T cells were isolated using FACS. Briefly, single-cell suspension of KMNCs was preincubated with anti-CD16/CD32 Fc block (S17011E, BioLegend) stained in Cell Staining Buffer (BioLegend) with fluorochrome-labeled antibodies: APC-Cy7 anti-CD45 (30-F11) and BV421 anti-TCRβ ([…]) from BioLegend. Live Dead Aqua (Thermo Fisher Scientific) was stained for viability assay. […] TCRβ^+ cells were sorted with FACSAria II Cell Sorter (BD Bioscience). Splenic T cells were isolated from single cells suspension of spleens using a T Cell Isolation Kit II (Miltenyi Biotec, North Rhine-Westphalia, Germany) according to the manufacturer's guideline.
48-well flat-bottom plates were coated with 5-μg/mL anti-CD3 in PBS and incubated at 4° C. overnight. […]

CCOC(=O)[C@H](CCC(=O)C=[N+]=[N-])NC(=O)[C@@H](N)CC(C)C [JHU083]
tolerability of dosage regimen [1]: tolerable without significant toxicity
phenotype of CD4+ and CD8+ T cells in steady-state kidneys (kidney T cells): skewed toward naïve phenotypes with lower CD69, CD44, and Ki67 and higher CD62L
expression of activation and proliferation markers (CD44, CD69, CD25, Ki67) (splenic T cells; 0.25 μM, 0.5 μM, or 1 μM JHU083, 24 h hypoxia followed by reoxygenation, dose-dependent, vs vehicle): reduced expression of activation and proliferation markers
metabolic profiles of treated T cells (splenic T cells; CD3/CD28 stimulation, hypoxia/reoxygenation, FIG. 18B): exhibited unstimulated T cell phenotypes
